# What was measured:
# [1] = Solubility issue noted in the binding experiments; type: physicochemical; details: in binding assay
# Method: The data were fitted to a one-site competition model via nonlinear regression and the IC50 values were determined as described in Section 3.4.
# human GnRHR I = molecular target: T1, human GnRHR I (Homo sapiens, UniProt P30968); experiment: Competitive radioligand binding (125I-DTyr6-His5-GnRH) on membranes from HEK 293 cells stably expressing GnRHR I; details: competition with 125I-DTyr6-His5-GnRH, HEK 293 membranes, 4 °C 16-19 h, one-site model; read-out: apparent binding affinity (IC50)
# T1 construct: expressed in transfected cells
# T1 sequence (P30968 1-328): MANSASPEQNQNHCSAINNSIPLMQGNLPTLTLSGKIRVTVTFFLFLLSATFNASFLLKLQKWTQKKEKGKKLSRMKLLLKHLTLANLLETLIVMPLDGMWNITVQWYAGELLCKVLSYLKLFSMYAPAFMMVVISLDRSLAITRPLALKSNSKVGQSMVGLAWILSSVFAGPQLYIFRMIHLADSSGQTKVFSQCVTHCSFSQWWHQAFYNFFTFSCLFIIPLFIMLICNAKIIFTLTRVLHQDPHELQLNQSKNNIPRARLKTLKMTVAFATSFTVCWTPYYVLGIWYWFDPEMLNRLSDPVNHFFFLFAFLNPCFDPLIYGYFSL
# [2] = molecular target: E. coli Trx1 / E. coli TrxR (thioredoxin system) (Escherichia coli, UniProt P0AA25); experiment: Disulfide bond reduction assay by EcoTrx1 (NADPH absorbance at 340 nm); type: biochemical; details: for Absorbance Asample1 / Absorbance Asample2 / Absorbance Average1, 2: A340, with TrxR
# Sequence of E. coli Trx1 / E. coli TrxR (thioredoxin system) (P0AA25 2-109): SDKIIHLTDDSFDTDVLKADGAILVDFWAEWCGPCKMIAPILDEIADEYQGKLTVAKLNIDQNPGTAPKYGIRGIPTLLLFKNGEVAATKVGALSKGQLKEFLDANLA
# Method: The assay employed was based on changes in the absorbance at 340 nm from the oxidation of NADPH using a modified version of the protocol laid out in [90]. Briefly, the decrease in A340 was measured in 96-well plates containing 100 μL of 200 mM potassium phosphate pH 7.4, 1 mM EDTA, 0.1 mg/mL BSA, 200 μM NADPH, 2 μM E. coli Trx1 and 10 nM E. coli TrxR for 5 min at 25 °C with insulin at a final concentration of 0.067 mM (0.2 mM disulfides) (see Table S2). The reduction of con7 was measured at a final concentration of 0.2 mM (see Table S3). Blanks were samples without EcoTrxR.
# Figure 4 Reduction of (A) con7 and (B) insulin by EcoTrx1. The assay mixture contains 200 mM potassium phosphate pH 7.4, 1 mM EDTA, 0.1 mg/mL BSA, 200 μM NADPH, 2 μM Escherichia coli Trx1, 10 nM E. coli TrxR, (A) 0.2 mM con7 or (B) 0.067 mM (0.2 mM disulfides) insulin. The reaction was carried out at 25 °C by monitoring the decrease of NADPH absorbance at 340 nm for (A) con7 in the absence ( [drawing 1] ) or presence of TrxR ( [drawing 2] ) and (B) insulin in the absence ( [drawing 3] ) or presence of TrxR ( [drawing 4] ).
structure (smiles),measurement,setting,value
CCNC(=O)[C@@H]1CCCN1C(=O)[C@H](CCCNC(=N)N)NC(=O)[C@H](CC(C)C)NC(=O)[C@@H](CSSCC(=O)NCCCCNc1ccc(O)c2c1C(=O)c1ccccc1C2=O)NC(=O)[C@H](Cc1ccc(O)cc1)NC(=O)[C@H](CO)NC(=O)[C@H](Cc1c[nH]c2ccccc12)NC(=O)[C@H](Cc1c[nH]cn1)NC(=O)[C@@H]1CCC(=O)N1 [con4],solubility,[1],solubility issues
CCNC(=O)[C@@H]1CCCN1C(=O)[C@H](CCCNC(=N)N)NC(=O)[C@H](CC(C)C)NC(=O)[C@@H](CCCCNC(=O)CCCCCNC(=O)CCSSCC(=O)OCCNCCNc1ccc(NCCNCCO)c2c1C(=O)c1c(O)ccc(O)c1C2=O)NC(=O)[C@H](Cc1ccc(O)cc1)NC(=O)[C@H](CO)NC(=O)[C@H](Cc1c[nH]c2ccccc12)NC(=O)[C@H](Cc1c[nH]cn1)NC(=O)[C@@H]1CCC(=O)N1 [con7],IC50,human GnRHR I,60 pM
same,speed of reduction compared with insulin,"[2]; 0.2 mM con7 vs 0.067 mM insulin (0.2 mM disulfides), 25 °C",more rapid
same,Absorbance Asample1,[2]; 0 sec,1.004
same,Absorbance Asample2,[2]; 0 sec,0.982
same,"Absorbance Average1, 2",[2]; 0 sec,0.993
same,Absorbance Asample1,[2]; 9 sec,1.004
same,Absorbance Asample2,[2]; 9 sec,0.980
same,"Absorbance Average1, 2",[2]; 9 sec,0.992
same,Absorbance Asample1,[2]; 18 sec,1.004
same,Absorbance Asample2,[2]; 18 sec,0.981
same,"Absorbance Average1, 2",[2]; 18 sec,0.992
same,Absorbance Asample1,[2]; 27 sec,1.003
same,Absorbance Asample2,[2]; 27 sec,0.980
same,"Absorbance Average1, 2",[2]; 27 sec,0.991
same,Absorbance Asample1,[2]; 36 sec,1.002
same,Absorbance Asample2,[2]; 36 sec,0.978
same,"Absorbance Average1, 2",[2]; 36 sec,0.990
same,Absorbance Asample1,[2]; 45 sec,1.000
same,Absorbance Asample2,[2]; 45 sec,0.979
same,"Absorbance Average1, 2",[2]; 45 sec,0.989
same,Absorbance Asample1,[2]; 54 sec,1.000
same,Absorbance Asample2,[2]; 54 sec,0.977
same,"Absorbance Average1, 2",[2]; 54 sec,0.988
same,Absorbance Asample1,[2]; 63 sec,0.999
same,Absorbance Asample2,[2]; 63 sec,0.977
same,"Absorbance Average1, 2",[2]; 63 sec,0.988
same,Absorbance Asample1,[2]; 72 sec,0.999
same,Absorbance Asample2,[2]; 72 sec,0.976
same,"Absorbance Average1, 2",[2]; 72 sec,0.987
same,Absorbance Asample1,[2]; 81 sec,0.998
same,Absorbance Asample2,[2]; 81 sec,0.973
same,"Absorbance Average1, 2",[2]; 81 sec,0.985
same,Absorbance Asample1,[2]; 90 sec,0.997
same,Absorbance Asample2,[2]; 90 sec,0.974
same,"Absorbance Average1, 2",[2]; 90 sec,0.985
same,Absorbance Asample1,[2]; 99 sec,0.996
same,Absorbance Asample2,[2]; 99 sec,0.972
same,"Absorbance Average1, 2",[2]; 99 sec,0.984
same,Absorbance Asample1,[2]; 108 sec,0.996
same,Absorbance Asample2,[2]; 108 sec,0.971
same,"Absorbance Average1, 2",[2]; 108 sec,0.983
same,Absorbance Asample1,[2]; 117 sec,0.995
same,Absorbance Asample2,[2]; 117 sec,0.971
same,"Absorbance Average1, 2",[2]; 117 sec,0.983
same,Absorbance Asample1,[2]; 126 sec,0.994
same,Absorbance Asample2,[2]; 126 sec,0.970
same,"Absorbance Average1, 2",[2]; 126 sec,0.982
same,Absorbance Asample1,[2]; 135 sec,0.992
same,Absorbance Asample2,[2]; 135 sec,0.968
same,"Absorbance Average1, 2",[2]; 135 sec,0.980
same,Absorbance Asample1,[2]; 144 sec,0.991
same,Absorbance Asample2,[2]; 144 sec,0.967
same,"Absorbance Average1, 2",[2]; 144 sec,0.979
same,Absorbance Asample1,[2]; 153 sec,0.990
same,Absorbance Asample2,[2]; 153 sec,0.966
same,"Absorbance Average1, 2",[2]; 153 sec,0.978
same,Absorbance Asample1,[2]; 162 sec,0.990
same,Absorbance Asample2,[2]; 162 sec,0.966
same,"Absorbance Average1, 2",[2]; 162 sec,0.978
same,Absorbance Asample1,[2]; 171 sec,0.989
same,Absorbance Asample2,[2]; 171 sec,0.964
same,"Absorbance Average1, 2",[2]; 171 sec,0.977
same,Absorbance Asample1,[2]; 180 sec,0.989
same,Absorbance Asample2,[2]; 180 sec,0.965
same,"Absorbance Average1, 2",[2]; 180 sec,0.977
same,Absorbance Asample1,[2]; 189 sec,0.989
same,Absorbance Asample2,[2]; 189 sec,0.964
same,"Absorbance Average1, 2",[2]; 189 sec,0.977
same,Absorbance Asample1,[2]; 198 sec,0.988
same,Absorbance Asample2,[2]; 198 sec,0.962
same,"Absorbance Average1, 2",[2]; 198 sec,0.975
same,Absorbance Asample1,[2]; 207 sec,0.986
same,Absorbance Asample2,[2]; 207 sec,0.961
same,"Absorbance Average1, 2",[2]; 207 sec,0.974
same,Absorbance Asample1,[2]; 216 sec,0.987
same,Absorbance Asample2,[2]; 216 sec,0.960
same,"Absorbance Average1, 2",[2]; 216 sec,0.974
same,Absorbance Asample1,[2]; 225 sec,0.985
same,Absorbance Asample2,[2]; 225 sec,0.959
same,"Absorbance Average1, 2",[2]; 225 sec,0.972
same,Absorbance Asample1,[2]; 234 sec,0.984
same,Absorbance Asample2,[2]; 234 sec,0.957
same,"Absorbance Average1, 2",[2]; 234 sec,0.971
same,Absorbance Asample1,[2]; 243 sec,0.984
same,Absorbance Asample2,[2]; 243 sec,0.955
same,"Absorbance Average1, 2",[2]; 243 sec,0.970
same,Absorbance Asample1,[2]; 252 sec,0.982
same,Absorbance Asample2,[2]; 252 sec,0.954
same,"Absorbance Average1, 2",[2]; 252 sec,0.968
same,Absorbance Asample1,[2]; 261 sec,0.982
same,Absorbance Asample2,[2]; 261 sec,0.952
same,"Absorbance Average1, 2",[2]; 261 sec,0.967
same,Absorbance Asample1,[2]; 270 sec,0.980
same,Absorbance Asample2,[2]; 270 sec,0.952
same,"Absorbance Average1, 2",[2]; 270 sec,0.966
same,Absorbance Asample1,[2]; 279 sec,0.981
same,Absorbance Asample2,[2]; 279 sec,0.951
same,"Absorbance Average1, 2",[2]; 279 sec,0.966
same,Absorbance Asample1,[2]; 288 sec,0.979
same,Absorbance Asample2,[2]; 288 sec,0.949
same,"Absorbance Average1, 2",[2]; 288 sec,0.964
same,Absorbance Asample1,[2]; 297 sec,0.978
same,Absorbance Asample2,[2]; 297 sec,0.949
same,"Absorbance Average1, 2",[2]; 297 sec,0.963
same,reduction of disulfide bond by the thioredoxin system,[2]; decrease of NADPH absorbance over time in samples containing TrxR,successful

# Reference: publication PMC10607160 (International Journal of Molecular Sciences, 2023)
